The results in this text go back to ChEMBL document CHEMBL5620389, “Development of diphenylmethylpiperazine hybrids of chloroquinoline and triazolopyrimidine using Petasis reaction as new cysteine proteases inhibitors for malaria therapeutics” (Eur J Med Chem, 2023).

Bounds are passed on as bounds.

In the first series the test system is Erythrocyte. Nature of the series: Hemolytic activity in human RBC at 100 uM incubated for 2 hrs by microplate reader analysis. The format is toxicity, cell-based.
Conditions: not given
For `Oc1ccccc1C(c1ccc(C(F)(F)F)cc1)N1CCN(c2ccnc3cc(Cl)ccc23)CC1` (stereo unspecified), the Activity result is reported as “Toxic”.

As to `Cc1cc(N2CCN(C(c3ccc(Cl)c(Cl)c3)c3ccccc3O)CC2)n2ncnc2n1` (stereo unspecified), the Activity result is on record as “Toxic”. For `CCN(CC)CCCC(C)Nc1ccnc2cc(Cl)ccc12` (stereo unspecified) [CHLOROQUINE], the Activity entry is reported as “Toxic”. On the same count and under the same terms, the same measure for `COc1cccc(C(c2ccc(OC(F)(F)F)cc2)N2CCN(c3ccnc4cc(Cl)ccc34)CC2)c1O` (stereo unspecified): “Toxic”; for `Cc1cc(N2CCN(C(c3ccc(F)cc3)c3ccccc3O)CC2)n2ncnc2n1` (stereo unspecified): “Toxic”. As to `COc1cccc(C(c2ccc(F)c(Cl)c2)N2CCN(c3ccnc4cc(Cl)ccc34)CC2)c1O` (stereo unspecified), the Activity result was “Toxic”. With `COc1ccc(C(c2ccccc2O)N2CCN(c3cc(C)nc4ncnn34)CC2)cc1` (stereo unspecified), the Activity result is “Toxic”. For the compound `Cc1cc(N2CCN(C(c3ccc(F)c(F)c3)c3ccccc3O)CC2)n2ncnc2n1` (stereo unspecified), the Activity result is reported as “Toxic”. On to `COc1cccc(C(c2ccc(F)cc2)N2CCN(c3ccnc4cc(Cl)ccc34)CC2)c1O` (stereo unspecified), for which the Activity entry was “Toxic”. As to `Cc1ccc(C(c2ccccc2O)N2CCN(c3cc(C)nc4ncnn34)CC2)cc1` (stereo unspecified), the Activity entry is “Toxic”. For the compound `COc1ccc(C(c2ccccc2O)N2CCN(c3ccnc4cc(Cl)ccc34)CC2)cc1` (stereo unspecified), the Activity entry was “Toxic”.

For the next series, the system named is Plasmodium falciparum. Nature of the series: Antimalarial activity against chloroquine-sensitive Plasmodium falciparum 3D7 infected in RBC incubated for 50 hrs by SYBR green I staining based microplate reader assay. The format is functional, organism-based. Particulars: 3D7, Erythrocyte.
As usually defined, the IC50 is the concentration needed to halve the response being measured. Low readings indicate greater potency, high ones weaker potency. For `Oc1ccccc1C(c1ccc(C(F)(F)F)cc1)N1CCN(c2ccnc3cc(Cl)ccc23)CC1` (stereo unspecified), the midpoint of inhibition, the IC50, lay at 1410 nM.

`Cc1cc(N2CCN(C(c3ccc(Cl)c(Cl)c3)c3ccccc3O)CC2)n2ncnc2n1` (stereo unspecified) came in with an IC50 of 3330 nM. In turn, `COc1cccc(C(c2ccc(OC(F)(F)F)cc2)N2CCN(c3ccnc4cc(Cl)ccc34)CC2)c1O` (stereo unspecified) yielded an IC50 of 1470 nM. Compound `Cc1cc(N2CCN(C(c3ccc(F)cc3)c3ccccc3O)CC2)n2ncnc2n1` (stereo unspecified) had an IC50 of 34300 nM. `COc1cccc(C(c2ccc(F)c(Cl)c2)N2CCN(c3ccnc4cc(Cl)ccc34)CC2)c1O` (stereo unspecified): the IC50 was 1460 nM. As to `COc1ccc(C(c2ccccc2O)N2CCN(c3cc(C)nc4ncnn34)CC2)cc1` (stereo unspecified), the IC50 is above 25000 nM.

In turn, `Cc1cc(N2CCN(C(c3ccc(F)c(F)c3)c3ccccc3O)CC2)n2ncnc2n1` (stereo unspecified) gave an IC50 of 6870 nM. `COc1cccc(C(c2ccc(F)cc2)N2CCN(c3ccnc4cc(Cl)ccc34)CC2)c1O` (stereo unspecified): the midpoint of inhibition, the IC50, lay at 1540 nM.

The compound `Cc1ccc(C(c2ccccc2O)N2CCN(c3cc(C)nc4ncnn34)CC2)cc1` (stereo unspecified) returned an IC50 above 25000 nM. Same read-out and setting: in the case of `COc1ccc(C(c2ccccc2O)N2CCN(c3ccnc4cc(Cl)ccc34)CC2)cc1` (stereo unspecified) it was 1620 nM.
